{
  "source": "patent US20020197700A1",
  "about": "“Receptor of the EDb-fibronectin domains” (Schering AG, priority 2000, published 2002)",
  "key": {"endothelial cells [1]": {"system": "endothelial cells", "test": "adhesion test to ED-B-coated plates after pre-incubation of the cells with synthetic ED-B peptides", "assay_type": "cell-based", "conditions": "cells pre-incubated with 250 μM peptide; A595", "description": "Bowls of a 96-bowl plate (Nunc) are covered with protein for one hour at 37° C. With small proteins (<20 kDa) or peptides, it is recommended to allow the latter to dry on the plate (overnight without a cover under the sterile bank). The bowls are then saturated with 1% BSA for 1 hour at 37° C. Cells are dissolved in 1×trypsin, washed with 2% serum to inactivate the trypsin, and resuspended in medium. If antibodies or peptides are to be tested, the cells are pre-incubated in suspension with the latter for 30 minutes at 37° C. 10^4 cells per bowl (96-bowl plate) are incubated in a volume of 50-100 μl for 1 hour at 37° C. The supernatant is carefully poured off, the plate can be left inverted to drain on a paper towel for one minute and attached cells are stained with crystal violet/glutaric aldehyde for 15 minutes and attached. The bowls are washed three times with PBS, and the cells are then lysed by adding 2% SDS (15 minutes in the shaker). The absorption at 595 nm is measured. After washing three times with water, the cells, if desired, can be stained again.\nThe adherence was determined by the determination of the extinction at 595 nm (A595). The peptide designations that are applied in the figure are explained in FIG. 6. In this case, peptide sequence No. 043 corresponds to the sequence that is represented in SEQ ID NO: 1, peptide sequence No. 553 corresponds to SEQ ID NO: 2, peptide sequence No. 038 corresponds to SEQ ID NO: 3. A higher A595 value corresponds to a non-inhibited adherence, while a lower A595 value corresponds to an inhibition of the adherence by the corresponding peptide.\nThe method described for FIG. 4 was followed."}, "stromal cells (SC)": {"system": "stromal cells (SC)", "test": "proliferation assay (MTS) of stromal cells", "assay_type": "cell-based, human", "conditions": "SC/gelatin; bFGF+ED-B; 3 days", "description": "(§1) 1000 cells per bowl were incubated in 96-bowl plates. Soluble ED-B (10 μg/l) was added to the medium during the proliferation assay. After three days, the cell count was determined with the MTS assay. The proliferation of cells was induced by a basic […] growth factor (bFGF). […] In the case of human stromal cells on gelatin (SC/gelatin), even in the absence of bFGF proliferation occurred that considerably exceeded that of human endothelial cells.\n(§2) For the proliferation assay, the following experimental method was followed:\n(§3) Material: 96-bowl plate (flat-bottomed), Nunc\n(§4) Medium: MCDB 131, Pen/Strep, amphotericin (0.25 μg/ml), heparin (20 μg/ml), heat-inactivated FCS (5%)\nCells, 500-1000 per bowl (96-bowl plate) in 100 μl, are cultivated for 3 days in a medium with bFGF (1-3 ng/ml) or VEGF (30-50 ng/ml). The exact amount should be determined for each batch by titration: the minimum concentration that reaches the maximum proliferation stimulation is optimal. A synchronization of the cells before the experiment is not necessary, but can be done. After 3 days, the cell count is determined with the MTS kit (Promega) according to manufacturer's information. It is recommended to measure the absorption at several points to obtain a maximum absorption in the linear range (0.5; 1; 2; 4 hours). […]"}, "[2]": {"system": "HUVEC (Human Umbilical Vein Endothelial Cells)-spheroids", "test": "splintering test (tube formation test) of endothelial cell spheroids in collagen", "assay_type": "cell-based", "conditions": "for induction of capillary-like structures (tube formation); penetration of endothelial cells in collagen gels: over basal bFGF-induced penetration", "description": "For the splintering test (tube formation test), the following experimental method was used:\nMedium: MCDB 131, glutamine, Pen/Strep, amphotericin (0.25 μg/ml), heparin (20 μg/ml), heat-inactivated FCS (10%)\nGrowth medium: Medium with 2 ng/ml of bFGF and 10 ng/ml of VEGF\nEndothelial cells are dissolved with trypsin/EDTA and diluted with 5000 cells/ml in medium with 0.24% methyl cellulose. 200 μl (1000 cells) each are added to bowls of a Greiner plate and incubated overnight. Round cell clusters (spheroids) are harvested with a 1 ml pipette with beveled tips and centrifuged off. Spheroids are resuspended in 1.2% methyl cellulose/FCS and mixed with neutralized collagen gel. EDb and bFGF were co-polymerized.\nThis peptide thus has a stimulating effect on the penetration of endothelial cells in collagen gels. This peptide therefore corresponds to the binding region of EDb and stimulates, analogously to EDb itself, the penetration of endothelial cells in the collagen.\nThe method described for FIG. 3 was followed."}, "endothelial cells [3]": {"system": "endothelial cells", "test": "adhesion test of endothelial cells to coated microtiter-bowl plates", "assay_type": "cell-based", "conditions": "plates coated with 0-40 μg/ml ED-B; 1 hour; crystal violet, A595", "description": "As a negative control, bowls were used that were coated with 1 mg/ml of BSA (bovine serum albumin); the adhesion to BSA (<10%) was subtracted.\nThe adherence was quantified by staining with crystal violet, followed by a lysis with SDS. The quantification was carried out by measuring the extinction at 595 nm. A line drawn horizontally in the figure at A595 nm≈1.06 indicates the 100% adhesion to plasma-fibronectin.\nFor the adherence/adhesion test, the following experimental method was used:\nMedium: MCDB 131, Pen/Strep, amphotericin (0.25 μg/ml), heparin (20 μg/ml), 0.1% BSA (Sigma, ethanol-precipitated)\n0.1% crystal violet, 2% glutaric aldehyde in PBS, sterilized by filtration 2% SDS\nBowls of a 96-bowl plate (Nunc) are covered with protein for one hour at 37° C. With small proteins (<20 kDa) or peptides, it is recommended to allow the latter to dry on the plate (overnight without a cover under the sterile bank). The bowls are then saturated with 1% BSA for 1 hour at 37° C. Cells are dissolved in 1×trypsin, washed with 2% serum to inactivate the trypsin, and resuspended in medium. If antibodies or peptides are to be tested, the cells are pre-incubated in suspension with the latter for 30 minutes at 37° C. 10^4 cells per bowl (96-bowl plate) are incubated in a volume of 50-100 μl for 1 hour at 37° C. […] The absorption at 595 nm is measured. […]"}, "endothelial cells (EC)": {"system": "endothelial cells (EC)", "test": "proliferation assay (MTS) of endothelial cells", "assay_type": "cell-based", "conditions": "soluble ED-B 10 μg/l, 3 days; for action on human endothelial cell proliferation: bFGF-induced", "description": "as §1, §2, §3, §4\nCells, 500-1000 per bowl (96-bowl plate) in 100 μl, are cultivated for 3 days in a medium with bFGF (1-3 ng/ml) or VEGF (30-50 ng/ml). The exact amount should be determined for each batch by titration: the minimum concentration that reaches the maximum proliferation stimulation is optimal. A synchronization of the cells before the experiment is not necessary, but can be done. After 3 days, the cell count is determined with the MTS kit (Promega) according to manufacturer's information. It is recommended to measure the absorption at several points to obtain a maximum absorption in the linear range (0.5; 1; 2; 4 hours).\nNegative control, no mitogen (no proliferation) (−bFGF/VEGF) Positive control, with mitogen (maximum stimulation) (+bFGF/VEGF)"}, "[4]": {"system": "band with an apparent molecular weight of 120-130 kDa (receptor of the EDb-fibronectin domains)", "test": "affinity chromatography of cell lysate from surface-labeled human skin stromal cells", "assay_type": "binding", "conditions": "Western Blot", "description": "Method: The lysate is first put on the column three times.\nEDTA-Elution: EDTA complexes the Ca and Mg ions. As a result, the endothelial-cell proteins are eluted, which require Ca and Mg for binding. 2×4 ml of EDTA-buffer is put on the column (or on both columns) and collected in two fractions (E1 and E2/BE1 and BE2) in Falcon tubes. Then, the tube contents are mixed, and […] is pipetted off into one (or two) Eppendorf vessel(s).\nThe fractions or pre-elution fractions that are thus obtained were separated with SDS-PAGE and subjected to a Western Blot under reducing conditions.\nIn the Western Blot shown in FIG. 11, traces 1-3 show the elution of an affinity column with Fn-7-8-9, while traces 4-6 show the elution of an affinity column of Fn-7-B-8-9. Traces 1 and 4 are pre-elution factors, while traces 2, 3 or 5, 6 show fractions 1 and 2 of the respective elution run."}, "[5]": {"biological_target": "T1, biontinylated protein with an apparent molecular weight of 120-130 kDa (receptor of the EDb-fibronectin domains) (Homo sapiens, UniProt P05556)", "T1 construct": "proliferating endothelial cells that are biotinylated on the cell surface were lysed with a detergent; endogenous in cells; host or cells: proliferating human skin endothelial cells, surface-biotinylated, lysed in CHAPS", "T1 sequence (P05556 21-798)": "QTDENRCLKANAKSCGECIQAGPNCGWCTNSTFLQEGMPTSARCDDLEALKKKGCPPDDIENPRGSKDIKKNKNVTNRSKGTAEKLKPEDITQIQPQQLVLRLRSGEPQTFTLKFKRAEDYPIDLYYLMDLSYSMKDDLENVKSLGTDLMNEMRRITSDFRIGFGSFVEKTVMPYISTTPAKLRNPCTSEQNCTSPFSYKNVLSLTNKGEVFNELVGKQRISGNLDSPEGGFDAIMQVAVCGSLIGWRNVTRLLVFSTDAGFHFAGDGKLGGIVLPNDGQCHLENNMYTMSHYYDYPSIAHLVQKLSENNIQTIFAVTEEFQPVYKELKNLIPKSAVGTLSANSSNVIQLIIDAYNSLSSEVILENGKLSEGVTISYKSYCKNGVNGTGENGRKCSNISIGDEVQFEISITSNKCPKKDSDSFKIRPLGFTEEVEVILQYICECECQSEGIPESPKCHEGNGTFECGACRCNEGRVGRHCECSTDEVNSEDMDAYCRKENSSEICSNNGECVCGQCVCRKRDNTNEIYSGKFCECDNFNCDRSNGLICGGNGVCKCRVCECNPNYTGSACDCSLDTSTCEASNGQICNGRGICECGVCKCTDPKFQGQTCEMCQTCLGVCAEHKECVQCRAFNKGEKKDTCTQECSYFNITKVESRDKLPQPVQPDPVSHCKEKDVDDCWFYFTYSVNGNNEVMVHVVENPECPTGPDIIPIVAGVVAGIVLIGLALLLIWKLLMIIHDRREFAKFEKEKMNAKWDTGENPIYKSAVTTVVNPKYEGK", "T1 sequence (P17301 30-1181 partner)": "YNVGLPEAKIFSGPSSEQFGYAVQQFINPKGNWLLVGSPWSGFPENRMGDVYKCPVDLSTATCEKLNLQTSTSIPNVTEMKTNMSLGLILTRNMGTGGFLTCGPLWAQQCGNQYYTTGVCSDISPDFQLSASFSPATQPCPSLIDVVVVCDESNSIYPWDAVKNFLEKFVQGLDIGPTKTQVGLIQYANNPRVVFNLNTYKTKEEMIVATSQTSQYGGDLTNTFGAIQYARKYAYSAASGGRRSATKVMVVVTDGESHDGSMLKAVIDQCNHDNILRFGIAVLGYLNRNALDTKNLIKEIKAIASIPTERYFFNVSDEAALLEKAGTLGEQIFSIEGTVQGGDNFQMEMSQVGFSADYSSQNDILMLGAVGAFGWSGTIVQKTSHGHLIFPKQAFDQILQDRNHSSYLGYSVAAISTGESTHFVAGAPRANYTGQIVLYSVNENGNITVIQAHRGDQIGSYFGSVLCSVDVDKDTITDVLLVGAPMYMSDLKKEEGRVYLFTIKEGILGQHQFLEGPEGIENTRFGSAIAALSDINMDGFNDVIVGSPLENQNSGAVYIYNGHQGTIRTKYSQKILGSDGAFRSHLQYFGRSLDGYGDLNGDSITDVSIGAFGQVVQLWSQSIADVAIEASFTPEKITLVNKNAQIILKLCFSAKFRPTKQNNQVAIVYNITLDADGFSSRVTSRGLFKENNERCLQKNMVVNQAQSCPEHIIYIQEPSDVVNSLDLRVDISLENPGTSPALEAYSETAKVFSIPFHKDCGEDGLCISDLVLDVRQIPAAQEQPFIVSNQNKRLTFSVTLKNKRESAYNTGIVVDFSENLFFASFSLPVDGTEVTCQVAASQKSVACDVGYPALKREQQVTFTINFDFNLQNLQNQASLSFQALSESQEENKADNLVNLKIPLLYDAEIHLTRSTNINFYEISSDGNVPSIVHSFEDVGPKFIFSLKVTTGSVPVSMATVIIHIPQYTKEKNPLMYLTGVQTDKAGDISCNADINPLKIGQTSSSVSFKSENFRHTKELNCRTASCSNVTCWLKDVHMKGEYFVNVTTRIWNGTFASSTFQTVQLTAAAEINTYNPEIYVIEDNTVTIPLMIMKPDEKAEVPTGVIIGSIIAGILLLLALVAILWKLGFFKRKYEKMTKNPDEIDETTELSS", "test": "affinity chromatography of cell lysate from surface-labeled human skin endothelial cells", "assay_type": "binding", "conditions": "proliferating endothelial cells; EDTA elution; SDS-PAGE, Western Blot", "description": "In this respect, proliferating endothelial cells that are biotinylated on the cell surface were lysed with a detergent and subjected to an affinity chromatography, in which short fragments of fibronectin were coupled to sepharose with or without the inserted EDb-fibronectin domains (with the EDb-fibronectin domains=Fn-7-B-8-9, without the EDb-fibronectin domains=Fn-7-8-9). […] The elution is carried out by means of EDTA. Several fractions, described below, were collected. The fractions were then subjected to SDS-PAGE and studied with Western Blot with streptavidin-peroxidase and chemiluminescence (ECL). Traces 1 and 5 show pre-elution fractions, while traces 2, 3, 4 or 6, 7, 8 show the eluted fractions 1, 2 and 3. Traces 1-4 show the chromatography with Fn-7-8-9, while traces 5-8 show the chromatography with Fn-7-B-8-9.\nMethod: The cell culture bottles are washed respectively 3 times with PBS w/Ca+Mg before and after the biotinylation. Before the last washing process, the biotin buffer (1 mg/15 ml of PBS) is prepared. Into each of the bottles, 5 ml of the buffer (for 225 cm^2) or 12.5 ml (500 cm^2 plates) is pipetted into the center of the bottom, so that the volume can disperse over the entire bottom of the bottle while swinging around. The first culture bottle is then treated with half of the lysis buffer volume. […]"}},
  "note": "“Also recorded” adds a separate entry of the source.",
  "data": [
    {"substance": "1: synthetic peptide, partial sequence of the EDb-fibronectin domains, SEQ ID NO: 1 (VDITDSSIGLRWTPL) [compound 1]", "values": [
      {"measurement": "inhibition of adherence of endothelial cells to ED-B-coated plates", "setting": "endothelial cells [1]", "result": "inhibitory"}
    ]},
    {"substance": "3: synthetic peptide, partial sequence of the EDb-fibronectin domains, SEQ ID NO: 3 (TGLEPGIDYDISVIT) [compound 3]", "values": [
      {"measurement": "inhibition of adherence of endothelial cells to ED-B-coated plates", "setting": "endothelial cells [1]", "result": "inhibitory"}
    ]},
    {"substance": "ED-B: recombinant His-tagged EDb-fibronectin domain (type III repeat), expressed in E. coli", "values": [
      {"measurement": "proliferation of human stromal cells", "setting": "stromal cells (SC)", "result": "could not be increased"},
      {"measurement": "splintering of endothelial cells from spheroids", "setting": "[2]; embedded in collagen, 10 μg/ml bFGF, 6 μg/ml ED-B", "result": "further stimulated; also recorded: significant increase in splintering"},
      {"measurement": "induction of capillary-like structures (tube formation); penetration of endothelial cells in collagen gels", "setting": "[2]", "result": "stimulates"},
      {"measurement": "adhesion of endothelial cells to coated surfaces", "setting": "endothelial cells [3]", "result": "cells adhere"},
      {"measurement": "action on human endothelial cell proliferation", "setting": "endothelial cells (EC); EC/collagen", "result": "not as significant as in the flattening-out on gelatin"},
      {"measurement": "action on human endothelial cell proliferation", "setting": "endothelial cells (EC); EC/gelatin", "result": "action of ED-B on human endothelial cell proliferation could be determined"},
      {"measurement": "action on proliferation of cells (extinction at 490 nm)", "setting": "endothelial cells (EC); absence of bFGF, MTS assay", "result": "no action"}
    ]},
    {"substance": "Fn-7-B-8-9: recombinant fibronectin fragment with domains 7, EDb, 8 and 9", "values": [
      {"measurement": "prominent 120-130 kDa band in eluate of affinity column", "setting": "[4]", "result": "cannot be determined"},
      {"measurement": "binding of 120-130 kDa surface protein to sepharose-coupled fragment", "setting": "[5]", "result": "binds specifically"}
    ]},
    {"substance": "peptide No. 2: synthetic peptide derived from loop 5 of ED-B, SEQ ID NO: 2 (GYYTVTGLEPGIDYD)", "values": [
      {"measurement": "induction of capillary-like structures (tube formation); penetration of endothelial cells in collagen gels", "setting": "[2]", "result": "maximum effect"},
      {"measurement": "inhibition of adherence of endothelial cells to ED-B-coated plates", "setting": "endothelial cells [1]", "result": "inhibitory"}
    ]}
  ]
}
